Here are results for eleven compounds from US6737547B1, “Compositions containing and methods of using N-acyl-1H-aminoindenes” (Teva Pharmaceutical Industries, Ltd., priority 1998, dated 2004).

Read-outs that look alike come from different tables or passages of the source.

Test [1] deals with guinea-pig ileal preparation. Nature of the test: Potentiation of adenosine depression of contractile response, procedure I (in the presence of test compound). The note with it: drug present. The protocol:
(§1) The test system used is the intramural electrically-stimulated guinea-pig ileal preparation as described in EXAMPLE 10. Adenosine added to the organ bath in rising concentrations in the range 0.1-10 uM causes a dose-dependent decrease in contraction amplitude, with an EC50 of about 1 uM.
In procedure I, the effect of a given concentration of adenosine, usually, 0.2 or 0.4 uM was first determined and related to the full contractile response in the absence of adenosine. […] The amplitude of the contractile response was recorded. Now, adenosine was added at the same dose initially used, and the effect of adenosine in the presence of the test compound was recorded.
(§2) The calculated effect is the product of the responses to each of the two agents when applied separately. The potentiation ratio is defined as (100%found)/(100-% calculated).

The test system of test [2] is guinea-pig ileal preparation. Nature of the test: Decrease of contractile response to intramural electric stimulation in the guinea-pig ileal preparation. The conditions noted are these: Cavia porcellus. The protocol: A 2 cm-long section of the distal ileum freshly dissected from a CO2-asphyxiated guinea pig is cleaned from adhering tissue and mounted in an organ bath (5 mL) containing Krebs solution constantly aerated with oxygen containing 5% CO2. The initial tension is adjusted at 5 g per strip. Tension is monitored isometrically with a Grass FTC3 force transducer. Intramural electric stimulation is delivered through a platinum electrode from a Grass stimulator model s88, s44 at supramaximal voltage (V) and a frequency of 0.1/s. The preparation develops a rhythmic contractile response at maximal amplitude which is stable over time. Addition of test drugs to the organ bath causes a dose-dependent decrease in contraction amplitude which is stable over 5-8 minutes. The relative decrease in contractile response indicates the relative potency of a given agent in a series.
Blocking or decreasing neural excitability evoked by programmed electric stimulation is another indicator of a compound's potential neuroprotective activity. A convenient test system uses the guinea-pig ileal preparation mounted in an organ bath (see, for example, Eiichi Hayashi et al., European J. Pharmacol 48, 297-307, 1978).

Test [3] deals with guinea-pig ileal preparation. Nature of the test: Potentiation of adenosine depression of contractile response, procedure II (after exposure to and washout of test compound). The note with it: for Mean potentiation ratio ± SEM: drug conc. (uM): 3, 100-400, 2a, 1000, 2, 1000. The protocol: as §1, §2
In all cases, the difference between the calculated and observed response was statistically significant. […] In procedure II, the dose response to adenosine was determined before and after exposure of the preparation to the test drug and washout of the test drug from the organ bath. In this case, significant potentiation of adenosine was observed even though the test drug had been washed out from the organ bath. In fact, the potentiation ratio, as defined earlier, was even higher than found in the presence of the test compounds (Procedure I), reaching very high values.

A further test has as its system mice. The test can be described thus: Protection against hypobaric hypoxia in mice (survival time). Type of test: in vivo. The protocol: The apparatus used consisted of two chambers A and B connected by a three-way valve. […] The air in chamber A was evacuated to a pressure of 100 mm Hg. The three way valve was turned to disconnect chamber B from room air and to connect it to chamber A. At this point, the pressure in B fell to 200 mm Hg. Survival of residing mice was determined up to a maximum exposure of 15 minutes, and is defined as the time between onset of hypoxia to cessation of respiration.

The subject of test [4] is guinea-pig ileal preparation. The test can be described thus: Decrease in contractile response of guinea-pig ileum evoked by the nicotinic agonist DMPP. Also noted: Emax: dose or concentration left out as unconfirmed. The conditions noted are these: Cavia porcellus. The protocol: A strip of guinea-pig ileum is mounted in an organ bath, as described in EXAMPLE 10. 1-N,N-dimethyl-4-N-phenylpiperazinium chloride (DMPP) is added at intervals of about 15 minutes in order of increasing dose, to cause bath concentrations in the range of 0.1-10 uM. A brief contraction follows each addition. The amplitude of the contractile response is used to derive a dose-response relationship for DMPP. Usually, a bath concentration of 1 uM DMPP will give 90-100% of the maximal response obtainable in the given preparation. One of two procedures follows this: A dose-response of a test compound is determined in the presence of a fixed concentration of DMPP. This is done by incubating the preparation with a given concentration of the test compound, then challenging it with DMPP at a dose to give 1 uM bath concentration. The procedure is repeated with the next higher concentration of the test compound. In the other procedure, the dose-response of DMPP is determined in the presence of a fixed bath concentration of the test compound, usually 200 uM.
When intramural nerve stimulation occurs, as in the case of electrical stimulation, the contractile effector substance is released from nerve endings by a depolarization wave that propagates along the parasympathetic nerve fiber until its junction with smooth muscle of the ileum. An alternative but not equivalent procedure is stimulation of parasympathetic ganglia by an appropriate nicotinic agonist such as 1-N,N-dimethyl-4-N-phenylpiperazinium chloride (DMPP). Stimulation of parasympathetic ganglia causes a depolarization wave in the post-ganglionic nerve fiber which terminates on the smooth muscle of the ileum, causing release of contractile effector and contraction (see, for example, E. S. Vizi, Acetylcholine release from guinea-pig ileum by parasympathetic ganglion stimulants and gastrin-like polypeptides, Br. J. Pharmacol. 47, 765-77. 1973).

For the next test, the system named is Male ICR mice. The test can be described thus: Protection against maximal electroshock-induced seizure in mice (MES). The note with it: for protected/total: electroshock 30 min after medication; for ED50: Mus musculus, median effective dose, maximal electroshock, mice, ip, read-out: ED50 (95% confidence limits). Type of test: in vivo. On the procedure: Male ICR mice were used. The rodent shocker apparatus consisted of a shock stimulator Type 221 (Hugo Sachs Elektronik, Germany) with a current setting for mice. Thirty minutes after medication with a given agent, given intraperitoneally as a fine slurry in methyl cellulose 0.5% in distilled water, each mouse received an electroshock of 50 mA for 0.2 seconds, applied to the eye, at a maximum of 250 V/300 mA. The ratio of mice protected against seizure in a group of four per dose was determined and used as an indicator of neuroprotective activity.
Protection of mice against seizures induced by electroshock is a widely used model to probe for potential anti-epileptic agents (see, for example, Y. I. Sohn et al., Anticonvulsant properties of diphenylthiohydantoin, Arch. Int. Pharmacodyn. 188, 284-289, 1970).
(In general: In the maximal electroshock model the usual endpoint is tonic extension of the hind limbs.)

Where [5] appears, read: adenosine 0.1 uM, drug conc. range 40-400 uM.
The mark [6] stands for this setting: adenosine 0.2 uM, drug conc. range 40-400 uM.
Where [7] appears, read: calculated from logit plot, contractile response to intramural electric stimulation, read-out: EC50.
The mark [8] stands for this setting: adenosine 0.4 uM, after exposure and washout, 5, 50-400, 6, 50-400.
Setting [9] is: Mus musculus, ip, mice, 200 mm Hg, read-out: survival ± SD (survival time as percent of vehicle control).
The mark [10] stands for this setting: Mus musculus, 50 mg/kg, ip, mice, 200 mm Hg, read-out: survival ± SD (survival time as percent of vehicle control).
The mark [11] stands for this setting: adenosine 0.4 uM, drug conc. range (uM): 3, 20-400, 5, 50-200, 6, 25-50.
Setting [12] is: adenosine 0.4 uM, after exposure and washout, drug conc. range (uM): 3, 100-400, 5, 50-400, 6, 50-400.
Where [13] appears, read: Mus musculus, 12.5 mg/kg, ip, mice, 200 mm Hg, read-out: survival ± SD (survival time as percent of vehicle control).
Setting [14] is: Mus musculus, 25 mg/kg, ip, mice, 200 mm Hg, read-out: survival ± SD (survival time as percent of vehicle control).
Setting [15] is: dose of 25 mg/kg, listed in decreasing order of activity.
The mark [16] stands for this setting: Mus musculus, ip, read-out: survival ± SD (survival time as percent of vehicle control).

With `CC(=O)NC1CCc2ccccc21` (stereo not drawn) [Compound 2, N-acetyl-1-aminoindan, reference compound], in test [1] (setting [5]), the “Mean potentiation ratio ± SEM” value was 1.35 ± 0.07; the “potentiation ratio, Max” value was determined as 1.49; the “potentiation ratio, Min” value is recorded as 1.16. In addition, in test [1] (setting [6]), the “Mean potentiation ratio ± SEM” value is recorded as 1.24 ± 0.16; the “potentiation ratio, Max” value was determined as 1.51; the “potentiation ratio, Min” value is 0.79. Moreover, in test [2] (setting [7]), the EC50 (as a rule, the concentration that produces a half-maximal response) is 1840 µM. For the same compound, the “Mean potentiation ratio ± SEM” value in test [3] (setting [8]) is recorded as 0.87. Further, the response vs control in vivo at 100 mg/kg in the test on mice (setting [9]) came out at 200%.

In the case of `C[N+]1(C)CCN(c2ccccc2)CC1` [DMPP, 1-N,N-dimethyl-4-N-phenylpiperazinium chloride, reference compound], the Emax in test [4] (read-out: contractile response as % of the maximal response obtainable) lay within 90 to 100%.

In the case of `CCCC(CCC)C(=O)[O-].[Na+]` [Sodium valproate, sodium valproate, reference compound], the protected/total with Male ICR mice (280 mg/kg) is given as 1/8; with Male ICR mice (310 mg/kg), 2/8; in the test with Male ICR mice (340 mg/kg), 4/8; in the test on Male ICR mice (400 mg/kg), 6/8; in the test with Male ICR mice (600 mg/kg) it was 8/8. Besides, in the test with Male ICR mice, the 50% effective dose (ED50) (commonly the dose that gives a 50% effect, or the effect in half of the subjects) was determined as 350 mg/kg.

In the case of `CC(=O)NC1CCc2cc(Cl)ccc21` (stereo not drawn) [Compound 13, reference compound], in the test on mice (setting [10]), the response vs control in vivo at 50 mg/kg amounted to 148 ± 77%. The response vs control in vivo at 100 mg/kg with mice (setting [9]) was 267 ± 151%.

Take `O=CNC1=CCc2ccccc21` [Compound 5, N-Formyl-3-amino-1H-indene]: the protected/total is 0/4 in the test on Male ICR mice (50 mg/kg intraperitoneally), 1/4 in the test with Male ICR mice (75 mg/kg intraperitoneally) and 4/4 in the test with Male ICR mice (100 mg/kg intraperitoneally). Also, the 50% effective dose (ED50) in the test on Male ICR mice came to 79.4 mg/kg. In addition, the EC50 in test [4] (calculated from logit plot, inhibiting contractile response to 1 uM DMPP, read-out: EC50) is 34 µM; in test [2] (setting [7]), 188 µM. Moreover, the figures for the “Mean potentiation ratio ± SEM” value in test [1] (setting [11]) and in test [3] (setting [8]) were 2.19 ± 0.36 and 5.55 ± 1.0, respectively. In addition, the figures for the “potentiation ratio, Max” value in test [1] (setting [11]) and in test [3] (setting [12]) were 2.60 and 7.28, respectively. Besides, the “potentiation ratio, Min” value in test [1] (setting [11]) was 1.47; in test [3] (setting [12]) it was 3.78. Further, in test [3] (guinea pig ileal preparation after wash-out), the “potentiating effect retained after wash-out from the organ bath (in words)” value was “prolonged potentiating effect”. For the same compound, the response vs control in vivo at 12.5 mg/kg in the test on mice (setting [13]) stood at 248 ± 154%. Besides, the response vs control in vivo at 25 mg/kg in the test on mice (setting [14]) is 586 ± 253%. In the test with mice (setting [10]), the response vs control in vivo at 50 mg/kg is 331 ± 272%. For the same compound, in the test on mice (setting [9]), the response vs control in vivo at 100 mg/kg was determined as 489 ± 286%. Further, the “activity in the hypobaric hypoxia model (in words)” value (from here on “activity”) with mice (setting [15]) is recorded as “strong activity”.

For `CC(=O)NC1=CCCc2ccccc21` [Compound 4, N-Acetyl-4-amino-1,2-dihydronaphthalene], the protected/total in the test on Male ICR mice (75 mg/kg intraperitoneally) is recorded as 0/4; in the test on Male ICR mice (100 mg/kg intraperitoneally) it was 3/4. For the same compound, in the test with Male ICR mice, the ED50 is 92.3 mg/kg. In addition, the EC50 in test [4] was 193 µM; in test [2] (setting [7]), 752 µM. Besides, in the test on mice (setting [16]), the response vs control in vivo at 25 mg/kg was found to be 156 ± 24%. Also, the “activity” value in the test on mice (dose not given) was “inactive”.

Take `CN1C(=O)CN=C(c2ccccc2)c2cc(Cl)ccc21` [Diazepam, diazepam, reference compound]: the response vs control in vivo at 10 mg/kg in the test on mice (setting [16]) was determined as 316 ± 78%.

Consider `CCCC(C)C1(CC)C(=O)N=C([O-])NC1=O.[Na+]` (stereo not drawn) [Nembutal, reference compound], for which the “survival ± SD (survival time as percent of vehicle control)” value in the test with mice (40 mg/kg, ip, mice, 200 mm Hg) was 253 ± 200% of vehicle control.

`COC(=O)NC1=CCc2ccccc21` [Compound 8, N-Methoxycarbonyl-3-amino-1H-indene]: in the test on mice (setting [16]), the response vs control in vivo at 12.5 mg/kg is 195 ± 90%, the response vs control in vivo at 25 mg/kg amounted to 402 ± 348% and the response vs control in vivo at 50 mg/kg was 547 ± 327%. Besides, the “activity” value in the test with mice (setting [15]) was “strong activity”.

For the compound `O=CNC1=CCc2cc(Cl)ccc21` [Compound 7, N-formyl-6-chloro-3-amino-1H-indene], the response vs control in vivo at 12.5 mg/kg in the test on mice (setting [13]) amounted to 357 ± 299%. Moreover, the response vs control in vivo at 25 mg/kg in the test on mice (setting [14]) was 467 ± 239%. For the same compound, in the test on mice (setting [10]), the response vs control in vivo at 50 mg/kg was 893 ± 433%. The “activity” value with mice (setting [15]) is “strong activity”.

On to `Nc1ncnc2c1ncn2[C@@H]1O[C@H](CO)[C@@H](O)[C@H]1O` [Adenosine, adenosine, reference compound], for which the EC50 in test [2] (adenosine added in rising concentrations 0.1-10 uM, electrically-stimulated ileal preparation, read-out: EC50 of decrease in contraction amplitude) is roughly 1 µM.
